Experiment [1] has as its system Staphylococcus aureus Ap 01. In words: Antibacterial activity against resistant strain (background statement). The class given is cell-based. To be noted: Staphylococcus aureus Ap 01, resistant strain producing enzyme reacting with the 4'-hydroxyl group.
Experiment [2] deals with Staphylococcus epidermidis 109. Described as above. To be noted: Staphylococcus epidermidis 109, resistant strain producing enzyme reacting with the 4'-hydroxyl group. The class given is cell-based.

For the molecule `NCC1OC(OC2C(N)CC(N)C(OC3OC(CO)C(O)C(N)C3O)C2O)C(N)C(F)C1O` (centres unmarked) [3'-fluoro-3'-deoxykanamycin B], the antibacterial activity result in experiment [1] and in experiment [2] was “low antibacterial activity” each time.

These data come from patent publication EP0259014A2, “5-Deoxy-5-fluorokanamycin B derivatives and processes for the production thereof” (ZAIDAN HOJIN BISEIBUTSU KAGAKU KENKYU KAI, priority 1986, dated 1988).
